Assay results reported in ChEMBL document CHEMBL2412974, “Dimeric and trimeric triazole based molecules as a new class of Hsp90 molecular chaperone inhibitors” (Eur J Med Chem, 2013).
pIC50, pKd: −log10 of the molar value. Activity calls are given as the source filed them. No cut-off for these calls is given here.

Legend:
[1] = target: T1, Heat shock protein HSP 90-beta (Homo sapiens, UniProt P08238); experiment: Binding affinity to human Hsp90 by surface plasmon resonance analysis; conditions: for pKd: read-out: Kd
T1 sequence (P08238 whole entry): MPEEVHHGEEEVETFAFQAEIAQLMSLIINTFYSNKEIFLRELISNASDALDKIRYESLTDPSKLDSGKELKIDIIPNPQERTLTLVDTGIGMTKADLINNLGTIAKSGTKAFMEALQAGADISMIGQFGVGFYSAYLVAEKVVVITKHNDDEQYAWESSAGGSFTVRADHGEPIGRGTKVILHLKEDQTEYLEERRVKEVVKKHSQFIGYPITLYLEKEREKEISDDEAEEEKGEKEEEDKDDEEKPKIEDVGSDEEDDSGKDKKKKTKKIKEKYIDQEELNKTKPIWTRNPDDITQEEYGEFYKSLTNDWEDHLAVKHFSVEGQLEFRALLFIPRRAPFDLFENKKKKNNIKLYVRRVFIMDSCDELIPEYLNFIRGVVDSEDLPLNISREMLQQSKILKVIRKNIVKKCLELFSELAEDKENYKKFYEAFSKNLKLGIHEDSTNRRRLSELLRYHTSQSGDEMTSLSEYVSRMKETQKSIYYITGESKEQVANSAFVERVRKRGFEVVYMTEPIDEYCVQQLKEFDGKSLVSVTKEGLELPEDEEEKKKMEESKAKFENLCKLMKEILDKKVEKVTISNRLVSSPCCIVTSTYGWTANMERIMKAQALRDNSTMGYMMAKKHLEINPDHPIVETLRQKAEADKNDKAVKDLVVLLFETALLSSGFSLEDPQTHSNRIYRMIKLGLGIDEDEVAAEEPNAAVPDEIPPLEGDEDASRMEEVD

[2] = target: T1, Heat shock protein HSP 90-beta; experiment: Inhibition of human Hsp90 chaperone activity assessed as citrate synthase thermal-induced aggregation at 0.3 uM by fluorimetric analysis
[3] = target: T1, Heat shock protein HSP 90-beta; experiment: Inhibition of human Hsp90 ATPase activity assessed as inhibition of ATP hydrolysis after 60 mins by fluorimetric analysis

In the case of c1ccc2cc(Cn3cc(COCc4cn(Cc5ccc6ccccc6c5)nn4)nn3)ccc2c1, the Kd [1] was “Not Active”.

O=C1c2ccccc2C(=O)N1CCCn1cc(COCc2cn(CCCN3C(=O)c4ccccc4C3=O)nn2)nn1 was tested, and the inhibition [2] was “Active”, the pIC50 [3] was 5.15 and the inhibition [3] was “Dose-dependent effect”. For the same compound, the pKd [1] was 8.46.

Work on c1ccc2c(Cn3cc(CN(Cc4cn(Cc5cccc6ccccc56)nn4)Cc4cn(Cc5cccc6ccccc56)nn4)nn3)cccc2c1 yielded a pKd [1] of 6.70.

With O=C1c2ccccc2C(=O)N1CCCn1cc(CCCCc2cn(CCCN3C(=O)c4ccccc4C3=O)nn2)nn1 the Kd [1] was “Not Active”.

For c1ccc2cc(Cn3cc(CCCCc4cn(Cc5ccc6ccccc6c5)nn4)nn3)ccc2c1, the inhibition [2] was “Active”, the pIC50 [3] was 4.28 and the inhibition [3] was “Dose-dependent effect”. It also gave a pKd [1] of 7.08.

c1ccc(-c2ccc(Cn3cc(CCCCc4cn(Cc5ccc(-c6ccccc6)cc5)nn4)nn3)cc2)cc1 was tested, and the Kd [1] was “Not Active”.

For c1ccc(-c2ccc(Cn3cc(-c4ccc(-c5cn(Cc6ccc(-c7ccccc7)cc6)nn5)cc4)nn3)cc2)cc1, the Kd [1] was “Not Active”.

O=C1c2ccccc2C(=O)c2cc(Cn3cc(CCCCc4cn(Cc5ccc6c(c5)C(=O)c5ccccc5C6=O)nn4)nn3)ccc21 was tested, and the Kd [1] was “Not Active”.

Work on c1ccc(-c2ccc(Cn3cc(COCc4cn(Cc5ccc(-c6ccccc6)cc5)nn4)nn3)cc2)cc1 yielded a pKd [1] of 6.63.

O=C(c1ccccc1)c1ccc(Cn2cc(-c3ccc(-c4cn(Cc5ccc(C(=O)c6ccccc6)cc5)nn4)cc3)nn2)cc1 was tested, and the Kd [1] was “Not Active”.

For O=C1c2ccccc2C(=O)N1CCCn1cc(-c2ccc(-c3cn(CCCN4C(=O)c5ccccc5C4=O)nn3)cc2)nn1, the Kd [1] was “Not Active”.

In the case of O=C1c2ccccc2C(=O)c2cc(Cn3cc(-c4ccc(-c5cn(Cc6ccc7c(c6)C(=O)c6ccccc6C7=O)nn5)cc4)nn3)ccc21, the Kd [1] was “Not Active”.

Compound c1ccc2c(Cn3cc(CCCCc4cn(Cc5cccc6ccccc56)nn4)nn3)cccc2c1 has a pKd [1] of 6.72.

In the case of O=C(c1ccccc1)c1ccc(Cn2cc(CCCCc3cn(Cc4ccc(C(=O)c5ccccc5)cc4)nn3)nn2)cc1, the Kd [1] was “Not Active”.

c1ccc(-c2ccc(Cn3cc(CN(Cc4cn(Cc5ccc(-c6ccccc6)cc5)nn4)Cc4cn(Cc5ccc(-c6ccccc6)cc5)nn4)nn3)cc2)cc1 showed a pKd [1] of 7.14.

c1ccc2cc(Cn3cc(-c4ccc(-c5cn(Cc6ccc7ccccc7c6)nn5)cc4)nn3)ccc2c1 was tested, and the Kd [1] was “Not Active”.

For c1ccc2cc(Cn3cc(CN(Cc4cn(Cc5ccc6ccccc6c5)nn4)Cc4cn(Cc5ccc6ccccc6c5)nn4)nn3)ccc2c1, the inhibition [2] was “Active”, the pIC50 [3] was 4.80 and the inhibition [3] was “Dose-dependent effect”. For the same compound, the pKd [1] was 7.26.

In the case of O=C1c2ccccc2C(=O)c2cc(Cn3cc(CN(Cc4cn(Cc5ccc6c(c5)C(=O)c5ccccc5C6=O)nn4)Cc4cn(Cc5ccc6c(c5)C(=O)c5ccccc5C6=O)nn4)nn3)ccc21, the pKd [1] was 6.97.

O=C1c2ccccc2C(=O)c2cc(Cn3cc(COCc4cn(Cc5ccc6c(c5)C(=O)c5ccccc5C6=O)nn4)nn3)ccc21 was tested, and the inhibition [2] was “Active”, the pIC50 [3] was 5.15 and the inhibition [3] was “Dose-dependent effect”. It also gave a pKd [1] of 8.55.

c1ccc2c(Cn3cc(COCc4cn(Cc5cccc6ccccc56)nn4)nn3)cccc2c1 showed a pKd [1] of 7.99.

O=C(c1ccccc1)c1ccc(Cn2cc(CN(Cc3cn(Cc4ccc(C(=O)c5ccccc5)cc4)nn3)Cc3cn(Cc4ccc(C(=O)c5ccccc5)cc4)nn3)nn2)cc1 showed a pKd [1] of 6.82.

O=C1c2ccccc2C(=O)N1CCCn1cc(CN(Cc2cn(CCCN3C(=O)c4ccccc4C3=O)nn2)Cc2cn(CCCN3C(=O)c4ccccc4C3=O)nn2)nn1 gave a pKd [1] of 7.05.

In the case of O=C(c1ccccc1)c1ccc(Cn2cc(COCc3cn(Cc4ccc(C(=O)c5ccccc5)cc4)nn3)nn2)cc1, the inhibition [2] was “Active”, the pIC50 [3] was 5.15 and the inhibition [3] was “Dose-dependent effect”. It also gave a pKd [1] of 8.44.

For c1ccc2c(Cn3cc(-c4ccc(-c5cn(Cc6cccc7ccccc67)nn5)cc4)nn3)cccc2c1, the Kd [1] was “Not Active”.
